# Tested on: participants at high risk for cardiovascular events
# Assay: Large-scale clinical trial of ramipril versus placebo in reducing cardiovascular events
# Format: in vivo, human
# Experimental: A large-scale clinical trial was designed to examine the effect of the ACE inhibitor ramipril versus placebo in reducing cardiovascular events.
# The study was conducted in 267 centres in 19 countries over a six year period and included 9,541 participants who are at high risk for cardiovascular events due to a history of previous ischaemic heart disease, stroke, peripheral arterial disease or individuals with diabetes.
# The systolic blood pressure at inclusion of the patients was on average 138 mm Hg and thus the patients were normotensive at study start. After one month of therapy with either ramipril or placebo, the systolic blood pressure had decreased by 5.48 mm Hg and 1.59 mm Hg, respectively.
# The primary endpoint of the study was myocardial infarction (MI), stroke and cardiovascular (CV) death (mortality).
smiles,measurement,setting,value
CCOC(=O)[C@H](CCc1ccccc1)N[C@@H](C)C(=O)N1[C@H](C(=O)O)C[C@@H]2CCC[C@@H]21 [ramipril],decrease in systolic blood pressure,"after one month of therapy, normotensive patients, on average 138 mm Hg at inclusion",5.48 mm Hg
same,reduction in the need for revascularisation procedures and diabetic complications,patients taking ramipril versus placebo,between a fourth and a fifth
same,"reduction in the combined endpoint of cardiovascular deaths, heart attacks and strokes","patients taking ramipril, study stopped early",very clear reduction
same,reduction in the number of patients who developed diabetes,ramipril group versus placebo,36%
same,reduction in the number of patients who developed CHF,"ramipril group versus placebo, no signs or symptoms of CHF at study start",21%
same,reduction in the number of patients who developed a stroke,"ramipril group versus placebo, patients normotensive when recruited",32%
